ChEMBL document CHEMBL5724914, “Linking interpersonal differences in gut microbiota composition and drug biotransformation activity” (2024)

Assays:
[1] = (§1) The drug is tested on Z-012 corresponding to metagenome with ENA study accession number: PRJEB37062 and ENA sample accession number: ERS12561812 for biotransformation under anaerobic condition. The drug concentrations were measured over 9 timepoints collected between 0 and 24 hours of incubation by liquid-chromatography-coupled mass spectrometry (LC–MS); details: 2 µM
[2] = (§2) The drug is tested on WLS-350 corresponding to human gut metagenome with ENA study accession number: PRJEB37062 and ENA sample accession number: ERS12561789 for biotransformation under anaerobic condition. The drug concentrations were measured over 9 timepoints collected between 0 and 24 hours of incubation by liquid-chromatography-coupled mass spectrometry (LC–MS); details: 2 µM
[3] = human gut metagenome, 24 h, 2 µM
[4] = human gut metagenome, 24 h, 2 µM; remark: listed apart in the source
[5] = as §2, with “Z-024” for “WLS-350”, “pig” for “human”, “ERS12561823” for “ERS12561789”; details: 2 µM
[6] = human gut metagenome, 24 h, 2 µM; remark: listed apart in the source
[7] = as §2, with “Z-002” for “WLS-350”, “rabbit” for “human”, “ERS12561802” for “ERS12561789”; details: 2 µM
[8] = human gut metagenome, 24 h, 2 µM; remark: listed apart in the source
[9] = human gut metagenome, 24 h, 2 µM; remark: listed apart in the source
[10] = human gut metagenome, 24 h, 2 µM; remark: listed apart in the source
[11] = as §1, with “Z-004” for “Z-012”, “ERS12561804” for “ERS12561812”; details: 2 µM
[12] = human gut metagenome, 24 h, 2 µM; remark: listed apart in the source
[13] = human gut metagenome, 24 h, 2 µM; remark: listed apart in the source
[14] = as §2, with “Z-009” for “WLS-350”, “pig” for “human”, “ERS12561809” for “ERS12561789”; details: 2 µM
[15] = as §2, with “WLS-086” for “WLS-350”, “ERS12561752” for “ERS12561789”; details: 2 µM
[16] = as §1, with “Z-005” for “Z-012”, “ERS12561805” for “ERS12561812”; details: 2 µM
[17] = as §2, with “WLS-310” for “WLS-350”, “ERS12561785” for “ERS12561789”; details: 2 µM
[18] = as §2, with “Z-014” for “WLS-350”, “rat” for “human”, “ERS12561814” for “ERS12561789”; details: 2 µM
[19] = as §2, with “Z-006” for “WLS-350”, “mouse” for “human”, “ERS12561806” for “ERS12561789”; details: 2 µM
[20] = human gut metagenome, 24 h, 2 µM; remark: listed apart in the source
Further: call rule not given here.

Compound | Bacterial Biotransformation [1] | Bacterial Biotransformation [2] | Bacterial Biotransformation [3] | Bacterial Biotransformation [4] | Bacterial Biotransformation [5] | Bacterial Biotransformation [6] | Bacterial Biotransformation [7] | Bacterial Biotransformation [8] | Bacterial Biotransformation [9] | Bacterial Biotransformation [10] | Bacterial Biotransformation [11] | Bacterial Biotransformation [12] | Bacterial Biotransformation [13] | Bacterial Biotransformation [14] | Bacterial Biotransformation [15] | Bacterial Biotransformation [16] | Bacterial Biotransformation [17] | Bacterial Biotransformation [18] | Bacterial Biotransformation [19] | Bacterial Biotransformation [20]
CN1[C@@H]2CC[C@H]1C[C@@H](OC(=O)c1c[nH]c3ccccc13)C2 [TROPISETRON] | Compound NOT metabolized | Compound NOT metabolized | Compound NOT metabolized | Compound NOT metabolized | Compound NOT metabolized | Compound NOT metabolized | Compound NOT metabolized | Compound NOT metabolized | Compound NOT metabolized | Compound NOT metabolized | Compound NOT metabolized | Compound NOT metabolized | Compound NOT metabolized | Compound NOT metabolized | Compound metabolized | Compound NOT metabolized | Compound NOT metabolized | Compound NOT metabolized | Compound NOT metabolized | Compound NOT metabolized
N#Cc1ccc2[nH]cc(CCCCN3CCN(c4ccc5oc(C(N)=O)cc5c4)CC3)c2c1 [VILAZODONE] | Compound NOT metabolized | Compound metabolized | Compound metabolized | Compound metabolized | Compound metabolized | Compound metabolized | Compound metabolized | Compound metabolized | Compound metabolized | Compound NOT metabolized | Compound NOT metabolized | Compound metabolized | Compound metabolized | Compound NOT metabolized | Compound metabolized | Compound metabolized | Compound metabolized | Compound NOT metabolized | Compound metabolized | Compound metabolized
